# Experimental data published in article PMC12022903, “Evaluation of drug-drug interaction between Suraxavir Marboxil (GP681) and itraconazole, and assessment of the impact of gene polymorphism” (Frontiers in Pharmacology, 2025).
# Values joined by “and” are separate entries in the source; they are usually repeats but may differ in a detail not shown here. Equal entries are not always repeated.
# Assay: Pharmacokinetic parameters of GP1707D07 (HPLC-MS/MS, non-compartmental) in the GP681-itraconazole drug-drug interaction study
# Format: in vivo, healthy Chinese subjects
# Method: This single-center, open-label, self-controlled, fixed-sequence study, sponsored by Qingfeng Pharmaceutical Group Co., Ltd., was conducted at a single clinical research site in the China–Japan Friendship Hospital (Beijing, China). Each subject received the following treatment: Suraxavir Marboxil (GP681) 20 mg in the fasted state on day 1 and day 26. Itraconazole capsules (Sporanox®: Xi’an Yangsen Pharmaceutical Co., Ltd., China) 0.2 g twice daily (BID, bis in die) on day 22. Itraconazole 0.2 g daily from day 23 to day 36 [including day 26, when itraconazole was co-administrated with Suraxavir Marboxil (GP681)]. The washout period is 21 days (Figure 2). It should be noted that in the following sections, when discussing the PK profile, this study was divided into Period 1 (Suraxavir Marboxil (GP681) monotherapy, from day −1 to day 12), and Period 2 (Suraxavir Marboxil (GP681)-itraconazole co-administration, from day 21 to day 36). When discussion the safety profile, this study was divided into Stage 1 (Suraxavir Marboxil (GP681) monotherapy stage, from day 1 to day 21), Stage 2 (itraconazole monotherapy stage, from day 22 to day 25), and Stage 3 (Suraxavir Marboxil (GP681)-itraconazole co-administration stage, from d 26 to d 36).
# Blood samples were collected at the following time points: pre–dose, 0.5, 1, 2, 3, 4, 5, 6, 8, 12, 24, 36, 48, 72, 120, 168, and 264 h post-dose on day 1 and day 26. In addition, a blood sample were collected before dosing on day 1 for genetic polymorphism assessment.
# A validated high-performance liquid chromatography-tandem mass spectrometry (HPLC-MS/MS) method was used to determine plasma concentrations of Suraxavir Marboxil (GP681) and its active metabolite GP1707D07 at different times, with the quantification range of 0.3/0.3–300/300 ng/mL for Suraxavir Marboxil (GP681) and GP1707D07. The lower limit of quantification (LLOQ) for both compounds was 0.300 ng/mL. Phoenix® WinNonlin® 8.3 was used to estimate and analyze the pharmacokinetic parameters of non-compartmental model from plasma concentration data. Pharmacokinetic parameters included: maximum plasma concentration (Cmax), area under the plasma concentration-time curve extrapolated from time zero to infinity (AUC0- ∞ ), time to Cmax (Tmax), half-life (t1/2), λz, AUC_%Extrap, Vz/F, CL/F, and mean residence time (MRT).
# Statistical analysis was performed using SAS (version 9.4 or above) software programming. Pharmacokinetic concentration analysis was based on Pharmacokinetic Analysis Concentration Set (PKCS). Individual and mean concentrations (mean ± SD) were plotted against planned blood sampling time points for the analyte on linear and semi-log scales. Pharmacokinetic parameter analysis was based on Pharmacokinetic Analysis Parameter Set (PKPS). Drug interaction analysis was based on Drug Interaction Set (DIS). The geometric mean ratios and their 90% confidence intervals of pharmacokinetic parameters Cmax, AUC0-t, and AUC0- ∞ under Suraxavir Marboxil (GP681) single dose and Suraxavir Marboxil (GP681)-itraconazole co-administration conditions were calculated after natural logarithm transformation, using a linear mixed effects model with subjects as random effects and treatment (combined/single) as fixed effects.
# 1.3 Pharmacokinetic Sample Collection and Processing: Pharmacokinetic Analysis: Approximately 4 mL of blood is collected each time into a tube containing sodium fluoride/potassium oxalate as an anticoagulant. The tube is then placed upright in an ice-water bath. The plasma samples are separated by centrifugation for the detection of GP681/GP1707D07 blood drug concentrations. Both sample collection and processing are conducted under white light conditions. […]
# [1] = GP681 + itraconazole vs GP681 alone, N=12
# [2] = Period 1, GP681 20 mg monotherapy, geometric mean, N=12
# [3] = Period 1, GP681 20 mg monotherapy, individual subjects
# [4] = Period 1, GP681 20 mg monotherapy, mean, N=12
# [5] = Period 1, GP681 20 mg monotherapy, median, N=12
# [6] = Period 2, GP681 20 mg + itraconazole, geometric mean, N=12
structure (smiles),measurement,setting,value
O=C1c2c(O)c(=O)ccn2N([C@@H]2c3ccccc3SCc3c2ccc(F)c3F)[C@@H]2COC3(CC3)CN12 [GP1707D07],AUC0-t: point estimate of geometric mean ratio (90% CI) Period 2/Period 1,[1],"215.2% and 215.2 (170.7, 271.3) %"
same,AUC0-∞: point estimate of geometric mean ratio (90% CI) Period 2/Period 1,[1],"255.4% and 255.4 (204.5, 319.0) %"
same,Cmax: point estimate of geometric mean ratio (90% CI) Period 2/Period 1,[1],"137.7% and 137.7 (98.5, 192.3) %"
same,AUC0-t,[2],955.800 ng·h/mL
same,AUC_%Extrap,[2],7.117%
same,CL/F,[2],19.255 L/h
same,Cmax,[2],16.0 ng/mL and 16.0070 ng/mL
same,MRT0-t,[2],66.790 h
same,MRT0-∞,[2],87.2 h and 87.218 h
same,Tmax,[2],3.7 h
same,Vz/F,[2],1799.125 L
same,t1/2,[2],64.8 h and 64.764 h
same,λz,[2],0.0107 h⁻¹
same,AUC0-t,[3],1770.18 ng·h/mL and 1069.77 ng·h/mL and 1199.27 ng·h/mL and 602.25 ng·h/mL and 1158.79 ng·h/mL and 728.18 ng·h/mL and 1487.97 ng·h/mL and 759.35 ng·h/mL and 1247.30 ng·h/mL and 1364.54 ng·h/mL and 354.04 ng·h/mL and 739.81 ng·h/mL and 1069.8 ng·h/mL and 1199.3 ng·h/mL and 602.3 ng·h/mL and 1158.8 ng·h/mL and 728.2 ng·h/mL and 1488.0 ng·h/mL and 759.4 ng·h/mL and 1364.5 ng·h/mL and 354.0 ng·h/mL and 739.8 ng·h/mL and 1770.2 ng·h/mL
same,AUC0-∞,[3],1874.52 ng·h/mL and 1171.14 ng·h/mL and 1273.75 ng·h/mL and 689.41 ng·h/mL and 1290.37 ng·h/mL and 801.51 ng·h/mL and 1650.91 ng·h/mL and 781.02 ng·h/mL and 1310.49 ng·h/mL and 1409.63 ng·h/mL and 407.77 ng·h/mL and 814.16 ng·h/mL
same,AUC_%Extrap,[3],5.57% and 8.66% and 5.85% and 12.64% and 10.20% and 9.15% and 9.87% and 2.78% and 4.82% and 3.20% and 13.18% and 9.13%
same,CL/F,[3],10.67 L/h and 17.08 L/h and 15.70 L/h and 29.01 L/h and 15.50 L/h and 24.95 L/h and 12.11 L/h and 25.61 L/h and 15.26 L/h and 14.19 L/h and 49.05 L/h and 24.57 L/h
same,Cmax,[3],44.439 ng/mL and 17.988 ng/mL and 26.933 ng/mL and 7.24 ng/mL and 15.539 ng/mL and 12.018 ng/mL and 25.999 ng/mL and 16.03 ng/mL and 20.468 ng/mL and 30.14 ng/mL and 3.382 ng/mL and 11.179 ng/mL and 18.0 ng/mL and 26.9 ng/mL and 7.2 ng/mL and 15.5 ng/mL and 12.0 ng/mL and 26.0 ng/mL and 16.0 ng/mL and 20.5 ng/mL and 30.1 ng/mL and 3.4 ng/mL and 11.2 ng/mL and 44.4 ng/mL
same,MRT0-t,[3],61.44 h and 71.79 h and 62.61 h and 74.73 h and 74.78 h and 69.62 h and 63.68 h and 57.28 h and 63.69 h and 56.39 h and 80.89 h and 69.22 h
same,MRT0-∞,[3],75.90 h and 95.15 h and 78.26 h and 108.96 h and 102.37 h and 94.31 h and 93.23 h and 64.34 h and 75.97 h and 64.54 h and 117.49 h and 94.32 h
same,Tmax,[3],3 h and 6 h and 2 h and 5 h and 4 h
same,Vz/F,[3],857.04 L and 1725.92 L and 1402.22 L and 3031.63 L and 1619.87 L and 2462.69 L and 1483.10 L and 1801.98 L and 1183.17 L and 996.59 L and 5767.31 L and 2522.77 L
same,t1/2,[3],55.68 h and 70.05 h and 61.90 h and 72.43 h and 72.44 h and 68.41 h and 84.86 h and 48.78 h and 53.74 h and 48.69 h and 81.51 h and 71.18 h
same,λz,[3],0.012 h⁻¹ and 0.010 h⁻¹ and 0.011 h⁻¹ and 0.008 h⁻¹ and 0.014 h⁻¹ and 0.013 h⁻¹ and 0.009 h⁻¹
same,AUC_%Extrap,[4],7.9 (3.4) % and 7.919%
same,CL/F,[4],21.1 (10.6) L/h and 21.141 L/h
same,Cmax,[4],19.3 (11.2) ng/mL and 19.2796 ng/mL
same,MRT0-t,[4],67.2 (7.5) h and 67.176 h
same,MRT0-∞,[4],88.7 (17.0) h and 88.737 h
same,Tmax,[4],4.0 h
same,Vz/F,[4],"2071.2 (1,333.0) L and 2071.190 L"
same,t1/2,[4],65.8 (12.1) h and 65.805 h
same,λz,[4],0.011 (0.0021) h-1 and 0.0109 h-1
same,Tmax,"Period 1, GP681 20 mg monotherapy, median (range), N=12",4.0 (2.0–6.0) h
same,AUC0-t,[5],1114.281 ng·h/mL
same,AUC0-∞,[5],1222.445 ng·h/mL
same,AUC_%Extrap,[5],8.894%
same,CL/F,[5],16.390 L/h
same,Cmax,[5],17.0090 ng/mL
same,MRT0-t,[5],66.454 h
same,MRT0-∞,[5],93.771 h
same,Vz/F,[5],1672.897 L
same,t1/2,[5],69.231 h
same,λz,[5],0.0100 h⁻¹
same,AUC0-t,[6],2057.0 ng·h/mL and 2057.031 ng·h/mL
same,AUC_%Extrap,[6],21.847%
same,CL/F,[6],7.539 L/h
